Laboratory results published in patent US20170114025A1, “METHODS FOR INHIBITING NECROPTOSIS” (Catalyst Therapeutics Pty Ltd, priority 2014, published 2017).
Where two headings read alike, the source gives them in different places.

How the values were obtained:
[1] = system: U937 human histiocytic leukemia cell line; test: Screening for inhibition of TSQ induced necroptosis, 96 well plate format; type: cell-based
Method: Screening Compounds for Inhibition of TSQ Induced Necroptosis, 96 Well Plate Format.
U937 human histiocytic leukemia cell line.
35,000 per well in 120 μL of media, counted and plated immediately prior to addition of inhibitor and death stimuli. Final well volume of 150 μL after addition of compounds and death stimuli
HTRPMI (WEHI Media kitchen, contains L-Glutamine and penicillin, streptomycin)—supplemented with 7.4% v/v FCS (Gibco, Precision Plus. Lot #1221437)
48 hours following addition of compounds and death stimuli
DMSO Final Concentration (% v/v): 0.2%
Compounds that are in the Death Stimulation Cocktail and their Final Concentrations: • hTNF-Fc (100 ng/ml)—produced by Silke lab, WEHI • Compound A (500 nM)—Smac mimetic, Tetralogic • Q-VD-OPh (10 μM)—MP Biomedicals
Analysis: • Cells treated with PI staining (1 μg/ml) and analysed by flow cytometry
TNF; S: Smac mimetic; Q: Q-VD-OPh): TSQ treatment ensures that cells specifically undergo necroptotic cell death. TNF activates the TNF receptor, Smac mimetic direct the signal away from proinflammatory signaling and toward the RIP1/RIP3-mediated cell death pathways, and Q-VD-OPh ensures that the apoptotic response is blocked leaving only the programmed necrosis response. The compounds' activity (solution in DMSO) tested in this TSQ-induced assay is evaluated by measuring their ability to block cell death as measured by flow cytometry after PI staining.

wild type U937 cells = test: Cell death assay, TSQ-induced necroptosis in U937 cells (PI, flow cytometry); type: cell-based, human; settings: for IC50: Homo sapiens
Description: (§1) Mouse dermal fibroblasts (MDFs) were isolated from three MlkI^−/− mice and three congenic wild type mice and then immortalized by SV40 large T antigen to generate three biologically independent cell lines, as described in Murphy J M, et al. (2013), Immunity 39(3):443-453. Immortalized MDFs were similarly prepared from three Ripk3^−/− mice and congenic wild type mice. MDFs and HEK293T were maintained in Dulbecco's modified Eagle's medium (DMEM) supplemented with 8-10% v/v fetal calf serum (FCS), and 5 μg/mL puromycin for lines stably transduced with inducible expression constructs for MLKL. U937 cells were cultured in RPMI1640 supplemented with 8% v/v FCS. Cell death assays were carried out in 24 well plates, seeding 1×10^5 cells per well. Cells attached over 4 h in the presence of 10 ng/mL doxycycline or 20 ng/mL were then treated with assorted combinations of Necrostatin (50 μM) and Q-VD-OPh (5 μM) 30 min prior to addition of TNF (100 ng/mL) and Smac mimetic (500 nM). After 24 h for MDF cells or 48 h for U937 cells, cells were harvested and PI positive cells (1 μg/mL) quantified using a BD FACSCalibur flow cytometer.

U937 cells = test: Counter screen: cell viability without TSQ cocktail (off target effect); type: cell-based; settings: U937 without TSQ cocktail; for Off target effect (% cell death) at 500 nM: compound at 500 nM; for Off target effect (% cell death) at 1 uM: compound at 1 uM; for Off target effect (% cell death) at 5 uM: compound at 5 uM; for Off target effect (% cell death) at 10 uM: compound at 10 uM
Method: In parallel, all compounds are tested for their ability to affect cell viability. The same U937 cells are treated with compound in DMSO without the TSQ cocktail. This counter screen enables evaluation of off-target effects. In this case gain, cell viability is measured by flow cytometry after PI staining.

[2] = biological target: T1, human MLKL(190-471) pseudokinase domain (Homo sapiens, UniProt Q8NB16); test: Surface Plasmon Resonance (SPR) binding, human MLKL; design: made in house; host or cells: Sf21 insect cells; settings: read-out: Affinity (Kd) as determined by SPR
T1 sequence (Q8NB16 190-471): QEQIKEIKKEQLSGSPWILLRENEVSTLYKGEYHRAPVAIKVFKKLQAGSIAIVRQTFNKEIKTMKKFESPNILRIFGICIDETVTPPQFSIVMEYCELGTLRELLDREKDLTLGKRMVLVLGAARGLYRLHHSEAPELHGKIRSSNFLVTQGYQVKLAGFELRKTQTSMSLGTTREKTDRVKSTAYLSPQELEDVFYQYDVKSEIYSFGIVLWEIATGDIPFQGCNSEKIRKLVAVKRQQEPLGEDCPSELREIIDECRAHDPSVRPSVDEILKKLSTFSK
Description: Double His-tagged MLKL and an unrelated negative control reference protein were immobilized on an NTA Capture chip charged with Ni^2+ according to manufacturer's instructions. In some instances, double His-tagged proteins were captured via Ni^2+/NTA chelation on a series S sensor chip containing carboxymethylated dextran surface pre-immobilized with nitrilotriacetic acid (NTA). The surface was then activated and enhanced with NHS/EDC mixture and His captured proteins covalently coupled to the surface as succinamide esters. Ethanolamine was injected later to block any unreacted esters. Unbound Ni^2+ and non-covalently bound proteins were eluted by EDTA injections.
Typical immobilization levels were 2000-3000 Response Units (RU). Flow cell 1 was left blank as a reference surface. Immobilization experiments were carried out at 25° C. in a running buffer containing 20 mM HEPES (pH 8.0), 200 mM NaCl and 0.005% (v/v) surfactant P20.
Binding experiments were carried out in Running Buffer+2% v/v DMSO. […] Data were reduced, solvent corrected, and double referenced by Biacore T200 Evaluation Software. Data were fit globally to a two state kinetic interaction model and the Kd determined from the (kd/ka) ratio. A 1:1 binding stoichiometry was inferred from the steady state binding curves and the maximum observed Response Unit (RU) levels.

[3] = biological target: T2, human MLKL ATP-binding site (Homo sapiens, UniProt Q8NB16); test: Complex between compound and human MLKL (FIG. 5); settings: FIG. 5 (A) and (B)
T2 sequence (Q8NB16 1-471): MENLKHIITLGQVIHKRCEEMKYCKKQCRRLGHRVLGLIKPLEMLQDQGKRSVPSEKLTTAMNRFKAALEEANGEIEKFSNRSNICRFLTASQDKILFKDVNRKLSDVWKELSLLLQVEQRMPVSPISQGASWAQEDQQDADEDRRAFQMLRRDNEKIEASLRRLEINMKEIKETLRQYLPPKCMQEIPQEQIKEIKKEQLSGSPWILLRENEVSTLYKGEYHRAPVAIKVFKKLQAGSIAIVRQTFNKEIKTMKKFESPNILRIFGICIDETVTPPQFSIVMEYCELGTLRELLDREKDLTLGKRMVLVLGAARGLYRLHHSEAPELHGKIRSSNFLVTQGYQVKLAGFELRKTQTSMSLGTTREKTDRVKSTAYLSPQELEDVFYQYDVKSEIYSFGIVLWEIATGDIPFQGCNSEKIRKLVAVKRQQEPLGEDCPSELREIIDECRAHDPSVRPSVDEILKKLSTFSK

[4] = system: wild type MDFs (mouse dermal fibroblasts); test: Cell death assay, TSQ-induced necroptosis in MDFs (PI, flow cytometry); type: cell-based; settings: wild type MDFs; at same or less than 1 μM
Description: as §1

[5] = U-937, U937, TSQ, 48 hours, unit not given in Table 2 (titrations given in nM), read-out: Cell based assay IC50
[6] = U-937, Table 1, U937 cells, TSQ-induced necroptosis, read-out: Inhibition of necroptosis (IC50)
[7] = U-937, U937, TSQ, 48 hours, average IC50, unit not given in Table 2 (titrations in nM), read-out: Cell based assay Average
[8] = U-937, 48 h, read-out: Cell based assay Average
[9] = U-937, 48 h, read-out: Cell based assay IC50

SMILES	IC50 [1, 5] [nM]	IC50 (wild type U937 cells; [6]) [nM]	Off target effect (% cell death) at 500 nM (U937 cells) [%]	Off target effect (% cell death) at 1 uM (U937 cells) [%]	Off target effect (% cell death) at 5 uM (U937 cells) [%]	Off target effect (% cell death) at 10 uM (U937 cells) [%]	Kd [2] [nM]	binding site in complex with human MLKL [3]	IC50 [1, 7] [nM]	IC50 [1, 8] [nM]	IC50 [1, 9] [nM]	IC50 (wild type U937 cells; U-937, read-out: Inhibition of necroptosis (IC50)) [nM]	inhibition of TSQ-induced necroptosis (wild type U937 cells; wild type U937 cells)	inhibition of TSQ-induced necroptosis [4]
CN(c1ccc(NC(=O)Nc2ccccc2)cc1)c1ccnc(Nc2cccc(S(N)(=O)=O)c2)n1 [Compound 2]	123	400 to 800	24	23	32	87	1300							
CN(c1ccc(NC(=O)Nc2cc(C(F)(F)F)ccc2F)cc1)c1ccnc(Nc2cccc(S(N)(=O)=O)c2)n1 [Compound 3]	3.31	1 to 5	40	72	86	84		binds within the ATP-binding site of human MLKL	15.3					
CN(c1ccc(NC(=O)Nc2ccc(OC(F)(F)F)cc2)cc1)c1ccnc(Nc2ccc(S(N)(=O)=O)cc2)n1 [Compound 4, 4-(4-(Methyl(4-(3-(4-(trifluoromethoxy)phenyl)ureido)phenyl)amino)pyrimidin-2-ylamino)benzenesulfonamide]							4700			> 5000	1460	> 1000		
Cc1ccc(Nc2nccc(N(C)c3ccc(NC(=O)Nc4ccc(OC(F)(F)F)cc4)cc3)n2)cc1S(N)(=O)=O [Compound 21, 2-Methyl-5-((4-(methyl(4-(3-(4-(trifluoromethoxy)phenyl)ureido)phenyl)amino)pyrimidin-2-yl)amino) benzenesulfonamide]	72.7		<20	<20	51	79			58.4					
CN(c1ccc(NC(=O)C(C)(C)c2ccc(OC(F)(F)F)cc2)cc1)c1ccnc(Nc2cccc(S(N)(=O)=O)c2)n1 [Compound 22, 2-methyl-N-(4-(methyl(2-((3-sulfamoylphenyl)amino)pyrimidin-4-yl)amino)phenyl)-2-(4-(trifluoromethoxy)phenyl)propanamide]			<20	<20	35	80			204					
COCCNS(=O)(=O)c1cccc(Nc2nccc(N(C)c3ccc(NC(=O)Nc4ccc(OC(F)(F)F)cc4)cc3)n2)c1 [Compound 23, N-(2-Methoxyethyl)-3-(4-(methyl(4-(3-(4-(trifluoromethoxy)phenyl)-ureido)phenyl)amino)pyrimidin-2-ylamino)benzenesulfonamide]	39		21	21	22	64			43.9					
NS(=O)(=O)c1cccc(Nc2nccc(N(c3ccc(NC(=O)Nc4ccc(OC(F)(F)F)cc4)cc3)C3CC3)n2)c1 [Compound 24, 3-((4-(Cyclopropyl(4-(3-(4-(trifluoromethoxy)phenyl)ureido)-phenyl)amino)-pyrimidin-2-yl)amino)benzenesulfonamide]			20	21	66	80				176	144			
CN(c1ccc(NC(=O)Nc2ccc(OC(F)(F)F)cc2)cc1)c1ccnc(Nc2cccc(S(C)(=O)=O)c2)n1 [Compound 25, 1-(4-(Methyl(2-((3-(methylsulfonyl)phenyl)amino)pyrimidin-4-yl)amino)phenyl)-3-(4-(trifluoromethoxy)phenyl)urea]	21.7		<20	<20	43	86			32.9					
CCN(c1ccc(NC(=O)Nc2ccc(OC(F)(F)F)cc2)cc1)c1ccnc(Nc2cccc(S(N)(=O)=O)c2)n1 [Compound 26, 3-((4-(ethyl(4-(3-(4-(trifluoromethoxy)phenyl)ureido)phenyl)-amino)pyrimidin-2-yl)amino)benzenesulfonamide]			<20	<20	43	69				93.6	126			
CN(c1ccc(NC(=O)Nc2ccc(OC(F)(F)F)cc2)cc1)c1ccnc(Nc2cccc(CS(C)(=O)=O)c2)n1 [Compound 27, 1-(4-(Methyl(2-((3-((methylsulfonyl)methyl)phenyl)amino)pyrimidin-4-yl)amino)phenyl)-3-(4-(trifluoromethoxy)phenyl)urea]	191		24	20	33	84			114					
CNC(=O)c1cc(Oc2ccc(NC(=O)Nc3ccc(Cl)c(C(F)(F)F)c3)cc2)ccn1 [Sorafenib, reference compound]													did not inhibit	did not inhibit
